Experimental data as given in PMC4388264, “ANS complex of St John’s wort PR-10 protein with 28 copies in the asymmetric unit: a fiendish combination of pseudosymmetry with tetartohedral twinning” (Acta Crystallographica Section D: Biological Crystallography, 2015).

Target: T1, Hyp-1 (Hypericum perforatum, UniProt Q8H1L1)
T1 construct: gene HYP1.1; recombinant Hyp-1 with an N-terminal hexapeptide extension (GIDPFW–) as a cloning artifact
T1 sequence (Q8H1L1 1-159): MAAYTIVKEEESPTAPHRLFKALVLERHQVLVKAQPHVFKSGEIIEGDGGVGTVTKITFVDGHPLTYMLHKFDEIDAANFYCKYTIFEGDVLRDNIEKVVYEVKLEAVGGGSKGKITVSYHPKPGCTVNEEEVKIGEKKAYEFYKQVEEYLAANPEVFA
Assay: crystal structure at […] Å and ITC (N = […]); fluorometric titration gave Kd […]
Format: binding

O=S(=O)(O)c1cccc2cccc(Nc3ccccc3)c12 [ANS, 8-anilino-1-naphthalene sulfonate]
Kd: 108 ± 3 µM
